Measured values: patent US9855320B2, “Angiogenin for treatment of glaucoma” (CHUNG-ANG UNIVERSITY INDUSTRY-ACADEMIC COOPERATION …, priority 2011, dated 2018)

Key:
[1] = test system: CD11b; test: Reverse transcription polymerase chain reaction of CD11b in retinal tissue, chronic intraocular pressure increase model; format: in vivo; conditions: seventh day after episcleral venous electric ablation, compared to the control and the normal rat group
Description: (§1) 0.05 cc/50 g of Tiletimine and Zolazepam-mixed medicament (Zoletil) and Xylazine (Rompum) were mixed at a ratio of 1:1 and then administered to 20 rats by intramuscular injection, thereby anesthetizing the rats. A limbus periphery was divided into four portions, each of which was then subjected to 2 mm dissection at an interval of 90 degrees, and then, two radial conjunctival excisions were performed on upper dissection periphery. […] After surgical isolation of vein, the vein was lifted up by using 3 mm-width spatula to be spaced apart from the peripheral tissue, and then, was subjected to electric ablation while being careful for the peripheral tissue not to have any thermal damage or any mechanical damage due to contact. Intraocular pressure was consecutively measured three or more times by using Tonopen (Solan, Fla., USA), and only reliable intraocular pressure values within 5 percentile were recorded. […] Before the operation, and 3 days, and 1, 2, 4, and 8 weeks after the operation, intraocular pressure was measured, and the rats were sacrificed to extract eyes therefrom, which were then subjected to tissue examination and immunechemical staining with respect to Brn-3a and CD11b, and a reverse transcription polymerase chain reaction was used to measure CD11b value in retinal tissue. […]

[2] = test system: corneal chemical burn model; test: Corneal chemical burn model: corneal opacity and corneal neoangiogenesis on anterior ocular segment images; format: in vivo, rat
Description: Regarding 20 eyes of 20 rats, filter paper was cut to a round shape having a diameter of 4 mm and completely wet with NaOH, and then, placed on corneal and conjunctiva with upper corneal limbus therebetween for 6 seconds, and then, the eyes were washed. 10 eyes of the 10 rats were treated with angiogenin 10 μl four times a day at time intervals of 6 hours two days before test, and even after the NaOH injury, treated 4 times a day. The remaining 10 eyes were treated with physiological saline two days before the injury in the same manner as used with angiogenin. Angiogenin and physiological saline were all administered only up to 7 days after injuring.
(§2) Three days, and 1, 2, 4, and 8 weeks after injuring, corneal opacity and neoangiogenesis level were assessed in consideration of images of anterior ocular segment, and on the third day and the seventh day, the respective conjunctiva damaged parts were collected and then subjected to a reverse transcription polymerase chain reaction to assay expression of IL-1a, TGF-β, SDF-1, and caspase-3.
On the corneal neoangiogenesis image, the region where blood vessel was grown was divided in the wedge shape at intervals of 1 hour while the corneal peak was used as a reference, and an area thereof was calculated, and the area was calculated according to this equation: A=C/12×3.1416 [r^2−(r−l)^2]. (A: new vessel area, C: time occupied when divided by 12 hours, r: corneal […], and l: vascular grown length)

[3] = test system: CD11b marked macrophage; test: CD11b immunochemical staining of retina, chronic intraocular pressure increase model; format: in vivo, rat
Description: as §1

[4] = test system: IL-1a; test: Reverse transcription polymerase chain reaction on injured tissue of corneal chemical burn model, IL-1a; format: in vivo, rat; conditions: third day and seventh day after keratoconjunctival chemical injury
Description: as §2
(§3) Tissues obtained from chronic intraocular pressure increase model and corneal chemical burn model were frozen, and then cut into small parts by using a fine knife. The tissue parts were treated with 1 ml of TRI reagent (Molecular Research Center, Inc.) and then, tissue and cell were lysed by homogenizer. The respective implication cDNA […] 0.2 mM dNTP, 10×buffer, 10 pmols primer, and 0.2 U Taq polymerase were mixed to obtain a volume of 20 μl, and then, PCR thermal cycler (a machine for PCR) was used for reaction for 5 minutes at 95° C., 40 second at 94° C., 40 seconds at 48 to 64° C., 40 seconds (35 cycles) at 72° C., and 10 minutes at 72° C. The amplified polymerase chain reaction product was identified by 1% agarose gel electrophoresis. β actin was used as a positive control for the polymerase chain reaction, and relative expression morphs of a target gene with respect to β actin expression were compared. […]

[5] = test system: normal white rat; test: Intraocular pressure change due to instillation in normal white rats (day-time and night-time); format: in vivo
Description: White rats were grouped as a physiological saline solution instillation group, an angiogenin (recombinant human angiogenin, R&D systems, USA) 50 μg/ml instillation group, an angiogenin fragment (angiogenin 108-122, SEQ ID NO: 1, BACHEM, USA) instillation group, and a latanoprost 50 μg/ml instillation group, and each group consisted of 6 rats, that is, 12 eyes. Instillation test was repeatedly performed on normal rats and glaucoma model rats. Ophthalmic agent was administered at 8 AM and 8 PM in an amount of 4 μl to compare day-time effects and night-time effects, and 1, 3, 6, 9, 12, and 24 hours after the instillation, intraocular pressure was measured.

[6] = test system: SDF-1; test: Reverse transcription polymerase chain reaction on injured tissue of corneal chemical burn model, SDF-1; format: in vivo, rat; conditions: third day and seventh day after keratoconjunctival chemical injury
Description: as §2, §3

[7] = from 2 weeks after the injury to 8 weeks

Substance: angiogenin: recombinant human angiogenin (R&D systems); 14.4 kDa single chain protein of 123 amino acids, a ribonuclease inducing angiogenesis
- CD11b expression in retina [1]: significantly higher
- corneal opacity compared to the control [2, 7]: significantly low
- corneal opacity grade (most of the group) [2, 7]: grade 1 or grade 2
- corneal new vessel area ([2]; on the second week after injury): did not change
- corneal opacity compared to the control ([2]; up to the seventh day after injury): no significant difference
- distribution of CD11b marked macrophage in retinal ganglion layer [3]: highly frequently distributed
- IL-1a expression compared to the control [4]: less expressed
- time after instillation up to which significant intraocular pressure reduction was maintained ([5]; day-time instillation): up to 9 hours
- time after instillation at which average intraocular pressure began to significantly decrease ([5]; day-time instillation, 50 μg/ml): 1 h
- intraocular pressure reduction compared to the pre-instillation intraocular pressure ([5]; day-time instillation, 50 μg/ml 4 μl, maintained up to 9 hours after the instillation): −1.8±0.4 mmHg
- time after instillation up to which significant intraocular pressure reduction was maintained ([5]; night-time instillation): up to 24 hours
- intraocular pressure reduction compared to that before instillation ([5]; night-time instillation, 50 μg/ml, maintained up to 24 hours after the instillation): −1.5±0.4 mmHg
- intraocular pressure reduction (in words) ([5]; night-time instillation, 1 hour after the instillation): significant intraocular pressure reduction
- SDF-1 expression compared to the control [6]: less expressed
